Source: patent publication US20050009840A1 (SUGEN, INC., priority 2003, published 2005)

Target: T1, Met kinase domain (GST fusion protein) (Homo sapiens, UniProt P08581)
T1 construct: Purified GST fusion protein containing the Met kinase domain
Assay: Met transphosphorylation assay (ELISA, poly(glu-tyr) substrate);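 further: Cell-free ELISA with plate-bound poly(Glu:Tyr 4:1) phosphorylated by GST-fused Met kinase domain plus ATP and Mn2+, phosphotyrosine detected by anti-phosphotyrosine antibody with HRP and ABTS read-out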
Format: biochemical
Details: Table 2; read-out: Met IC50

T1 sequence (P08581 1078-1345 limits assumed): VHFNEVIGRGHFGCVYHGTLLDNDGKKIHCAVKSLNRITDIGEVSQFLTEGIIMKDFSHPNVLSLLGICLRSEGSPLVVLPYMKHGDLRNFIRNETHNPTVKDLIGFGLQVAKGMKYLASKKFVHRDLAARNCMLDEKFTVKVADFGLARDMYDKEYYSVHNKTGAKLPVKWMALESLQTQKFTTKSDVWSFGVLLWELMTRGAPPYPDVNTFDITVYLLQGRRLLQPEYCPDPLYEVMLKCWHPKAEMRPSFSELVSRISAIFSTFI

Going from `CN(C)[C@H]1CCN(C(=O)c2ccc(-c3cnc(N)c(OCc4ccccc4C(F)(F)F)c3)cc2)C1` [Example I-185, {4-[6-Amino-5-(2-trifluoromethyl-benzyloxy)-pyridin-3-yl]-phenyl}-[(3S)-3-dimethylamino-pyrrolidin-1-yl]-methanone] to `Nc1ncc(-c2ccc(C(=O)N3CC[C@H](N)C3)cc2)cc1OCc1ccccc1C(F)(F)F` [Example I-186, [(3S)-3-Amino-pyrrolidin-1-yl]-{4-[6-amino-5-(2-trifluoromethyl-benzyloxy)-pyridin-3-yl]-phenyl}-methanone], the IC50 falls from 1.39 µM to 0.79 µM (1.8-fold).

First: CN1CCN(C(=O)c2ccc(-c3cnc(N)c(OCc4ccccc4C(F)(F)F)c3)cc2)CC1 [Example I-188, {4-[6-Amino-5-(2-trifluoromethyl-benzyloxy)-pyridin-3-yl]-phenyl}-(4-methyl-piperazin-1-yl)-methanone]
Second: CN1CCN(C(=O)c2ccc(-c3cnc(N)c(OCc4ccc(F)cc4Cl)c3)cc2)CC1 [Example I-207, {4-(6-Amino-5-(2-chloro-4-fluoro-benzyloxy)-pyridin-3-yl]-phenyl}-(4-methyl-piperazin-1-yl)-methanone]
The IC50 of the first is 3-fold lower: 1.64 µM for the first, 5 µM for the second. The first is the more potent here.

`Nc1ncc(-c2ccc(C(=O)NCCN3CCOCC3)cc2)cc1OCc1ccccc1C(F)(F)F` [Example I-191, 4-[6-Amino-5-(2-trifluoromethyl-benzyloxy)-pyridin-3-yl]-N-(2-morpholin-4-yl-ethyl)-benzamide] and `Nc1ncc(-c2ccc(C(=O)NCCCN3CCOCC3)cc2)cc1OCc1ccccc1C(F)(F)F` [Example I-192, 4-[6-Amino-5-(2-trifluoromethyl-benzyloxy)-pyridin-3-yl]-N-(3-morpholin-4-yl-propyl)-benzamide] are within 1.5-fold of each other in IC50: 5.2 µM for the first, 3.8 µM for the second.

`CN1CCN(C(=O)c2ccc(-c3cnc(N)c(OCc4ccc(C(C)(C)C)cc4)c3)cc2)CC1` [Example I-197, {4-[6-Amino-5-(4-tert-butyl-benzyloxy)-pyridin-3-yl]-phenyl}-(4-methyl-piperazin-1-yl)-methanone] and `CC(=O)N1CCN(C(=O)c2ccc(-c3cnc(N)c(OCc4ccc(C(C)(C)C)cc4)c3)cc2)CC1` [Example I-198, 1-(4-{4-[6-Amino-5-(4-tert-butyl-benzyloxy)-pyridin-3-yl]-benzoyl}-piperazin-1-yl)-ethanone] are within 1.5-fold of each other in IC50: 3.8 µM for the first, 3 µM for the second.

Compared with `CC(C)(C)c1ccc(COc2cc(-c3ccc(C(=O)NCCN4CCOCC4)cc3)cnc2N)cc1` [Example I-200, 4-[6-Amino-5-(4-tert-butyl-benzyloxy)-pyridin-3-yl]-N-(2-morpholin-4-yl-ethyl)-benzamide], `Nc1ncc(-c2ccc(C(=O)NCCN3CCOCC3)cc2)cc1OCc1ccc(F)cc1Cl` [Example I-209, 4-[6-Amino-5-(2-chloro-4-fluoro-benzyloxy)-pyridin-3-yl]-N-(2-morpholin-4-yl-ethyl)-benzamide] is 1.6-fold higher in IC50: 6.88 µM for the first, 11 µM for the second. The first is the more potent here.

Compared with `CN(C)[C@H]1CCN(C(=O)c2ccc(-c3cnc(N)c(OCc4ccc(F)cc4Cl)c3)cc2)C1` [Example I-205, {4-[6-Amino-5-(2-chloro-4-fluoro-benzyloxy)-pyridin-3-yl]-phenyl}-[(3S)-3-dimethylamino-pyrrolidin-1-yl]-methanone], `Nc1ncc(-c2ccc(C(=O)N3CC[C@H](N)C3)cc2)cc1OCc1ccc(F)cc1Cl` [Example I-206, {4-(6-Amino-5-(2-chloro-4-fluoro-benzyloxy)-pyridin-3-yl]-phenyl}-[(3S)-3-amino-pyrrolidin-1-yl]-methanone] is 33-fold lower in IC50: 61 µM for the first, 1.83 µM for the second. The second is the more potent here.

Compared with `CC(=O)N1CCN(C(=O)c2ccc(-c3cnc(N)c(OCc4ccc(F)cc4Cl)c3)cc2)CC1` [Example I-208, 1-(4-{4-(6-Amino-5-(2-chloro-4-fluoro-benzyloxy)-pyridin-3-yl]-benzoyl}-piperazin-1-yl)-ethanone], `CN1CCN(C(=O)c2ccc(-c3cnc(N)c(OCc4c(F)ccc(F)c4Cl)c3)cc2)CC1` [Example I-212, {4-[6-Amino-5-(2-chloro-3,6-difluoro-benzyloxy)-pyridin-3-yl]-phenyl}-(4-methyl-piperazin-1-yl)-methanone] is 84-fold lower in IC50: 5.3 µM for the first, 0.063 µM for the second.

Going from `Nc1ncc(-c2ccc(C(=O)NCCCN3CCOCC3)cc2)cc1OCc1ccc(F)cc1Cl` [Example I-210, 4-[6-Amino-5-(2-chloro-4-fluoro-benzyloxy)-pyridin-3-yl]-N-(3-morpholin-4-yl-propyl)-benzamide] to `Nc1ncc(-c2ccc(C(=O)N3CCC(N)CC3)cc2)cc1OCc1c(F)ccc(F)c1Cl` [Example I-214, {4-[6-Amino-5-(2-chloro-3,6-difluoro-benzyloxy)-pyridin-3-yl]-phenyl}-(4-amino-piperidin-1-yl)-methanone], the IC50 falls from 5.8 µM to 0.1 µM (58-fold). The second is the more potent here.

In the case of `Nc1ncc(-c2ccc(C(=O)O)cc2)cc1OCc1c(F)ccc(F)c1Cl` [Example I-211, 4 [6 Amino-5-(2-chloro-3,6-difluoro-benzyloxy)-pyridin-3-yl]-benzoic acid], the IC50 is reported as 0.35 µM.

Same assay, conditions: read-out: Met IC50

`Nc1ncc(-c2ccc(C(=O)NCCN3CCOCC3)cc2)cc1OCc1c(F)cccc1Cl` [Example I-148, 4-[6-Amino-5-(2-chloro-6-fluoro-benzyloxy)-pyridin-3-yl]-N-(2-morpholin-4-yl-ethyl)-benzamide] and `Nc1ncc(-c2ccc(C(=O)NCCCN3CCOCC3)cc2)cc1OCc1c(F)cccc1Cl` [Example I-149, 4-[6-Amino-5-(2-chloro-6-fluoro-benzyloxy)-pyridin-3-yl]-N-(3-morpholin-4-yl-propyl)-benzamide] are within 1.5-fold of each other in IC50: 6.4 µM for the first, 5.6 µM for the second.

First: CN(C)[C@H]1CCN(C(=O)c2ccc(-c3cnc(N)c(OCc4ccccc4Cl)c3)cc2)C1 [Example I-153, {4-[6-Amino-5-(2-chloro-benzyloxy)-pyridin-3-yl]-phenyl}-[(3S)-3-dimethylamino-pyrrolidin-1-yl]-methanone]
Second: CN(C)[C@H]1CCN(C(=O)c2ccc(-c3cnc(N)c(OCc4ccccc4C#N)c3)cc2)C1 [Example I-163, 2-{2-Amino-5-[4-((3S)-3-dimethylamino-pyrrolidine-1-carbonyl)-phenyl]-pyridin-3-yloxymethyl}-benzonitrile]
The IC50 of the first is lower: 12.7 µM for the first, > 20 µM for the second.

`Nc1ncc(-c2ccc(C(=O)N3CC[C@H](N)C3)cc2)cc1OCc1ccccc1Cl` [Example I-154, {4-[6-Amino-5-(2-chloro-benzyloxy)-pyridin-3-yl]-phenyl}-[(3S)-3-amino-pyrrolidin-1-yl]-methanone] and `N#Cc1ccccc1COc1cc(-c2ccc(C(=O)N3CC[C@H](N)C3)cc2)cnc1N` [Example I-164] are within 1.5-fold of each other in IC50: 1.44 µM for the first, 2.05 µM for the second.

First: CN1CCN(C(=O)c2ccc(-c3cnc(N)c(OCc4ccccc4Cl)c3)cc2)CC1 [Example I-156, {4-[6-Amino-5-(2-chloro-benzyloxy)-pyridin-3-yl]-phenyl}-(4-methyl-piperazin-1-yl)-methanone]
Second: CC(=O)N1CCN(C(=O)c2ccc(-c3cnc(N)c(OCc4ccccc4Cl)c3)cc2)CC1 [Example I-157, 1-(4-{4-[6-Amino-5-(2-chloro-benzyloxy)-pyridin-3-yl]-benzoyl}-piperazin-1-yl)-ethanone]
The IC50 of the first is 1.8-fold lower: 2.1 µM for the first, 3.8 µM for the second. The first is the more potent here.

Compared with `Nc1ncc(-c2ccc(C(=O)NCCN3CCOCC3)cc2)cc1OCc1ccccc1Cl` [Example I-158, 4-[6-Amino-5-(2-chloro-benzyloxy)-pyridin-3-yl]-N-(2-morpholin-4-yl-ethyl)-benzamide], `Nc1ncc(-c2ccc(C(=O)NCCCN3CCOCC3)cc2)cc1OCc1ccccc1Cl` [Example I-159, 4-[6-Amino-5-(2-chloro-benzyloxy)-pyridin-3-yl]-N-(3-morpholin-4-yl-propyl)-benzamide] is 2-fold lower in IC50: 8.9 µM for the first, 4.5 µM for the second. The second is the more potent here.

Compared with `CN1CCN(C(=O)c2ccc(-c3cnc(N)c(OCc4ccccc4C#N)c3)cc2)CC1` [Example I-166, 2-{2-Amino-5-[4-(4-methyl-piperazine-1-carbonyl)-phenyl]-pyridin-3-yloxymethyl}-benzonitrile], `CC(=O)N1CCN(C(=O)c2ccc(-c3cnc(N)c(OCc4ccccc4C#N)c3)cc2)CC1` [Example I-167, 2-{5-[4-(4-Acetyl-piperazine-1-carbonyl)-phenyl]-2-amino-pyridin-3-yloxymethyl}-benzonitrile] is 1.8-fold higher in IC50: 3.2 µM for the first, 5.7 µM for the second. The first is the more potent here.

Compared with `N#Cc1ccccc1COc1cc(-c2ccc(C(=O)NCCN3CCOCC3)cc2)cnc1N` [Example I-169, 4-[6-Amino-5-(2-cyano-benzyloxy)-pyridin-3-yl]-N-(2-morpholin-4-yl-ethyl)-benzamide], `N#Cc1ccccc1COc1cc(-c2ccc(C(=O)NCCCN3CCOCC3)cc2)cnc1N` [Example I-170, 4-[6-Amino-5-(2-cyano-benzyloxy)-pyridin-3-yl]-N-(3-morpholin-4-yl-propyl)-benzamide] is 2-fold higher in IC50: 8.6 µM for the first, 17.3 µM for the second.

`CN(C)[C@H]1CCN(C(=O)c2ccc(-c3cnc(N)c(OCc4ccc(Cl)cc4Cl)c3)cc2)C1` [Example I-174, {4-[6-Amino-5-(2,4-dichloro-benzyloxy)-pyridin-3-yl]-phenyl}-[(3S)-3-dimethylamino-pyrrolidin-1-yl]-methanone] and `Nc1ncc(-c2ccc(C(=O)N3CC[C@H](N)C3)cc2)cc1OCc1ccc(Cl)cc1Cl` [Example I-175, {4-[6-Amino-5-(2,4-dichloro-benzyloxy)-pyridin-3-yl]-phenyl}-[(3S)-3-amino-pyrrolidin-1-yl]-methanone] are within 1.5-fold of each other in IC50: 0.8 µM for the first, 1.2 µM for the second.

First: CN1CCN(C(=O)c2ccc(-c3cnc(N)c(OCc4ccc(Cl)cc4Cl)c3)cc2)CC1 [Example I-177, {4-[6-Amino-5-(2,4-dichloro-benzyloxy)-pyridin-3-yl]-phenyl}-(4-methyl-piperazin-1-yl)-methanone]
Second: CC(=O)N1CCN(C(=O)c2ccc(-c3cnc(N)c(OCc4ccc(Cl)cc4Cl)c3)cc2)CC1 [Example I-178, 1-(4-{4-[6-Amino-5-(2,4-dichloro-benzyloxy)-pyridin-3-yl]-benzoyl}-piperazin-1-yl)-ethanone]
The IC50 of the first is 2.1-fold lower: 0.79 µM for the first, 1.67 µM for the second.

Compared with `Nc1ncc(-c2ccc(C(=O)NCCN3CCOCC3)cc2)cc1OCc1ccc(Cl)cc1Cl` [Example I-180, 4-[6-Amino-5-(2,4-dichloro-benzyloxy)-pyridin-3-yl]-N-(2-morpholin-4-yl-ethyl)-benzamide], `Nc1ncc(-c2ccc(C(=O)NCCCN3CCOCC3)cc2)cc1OCc1ccc(Cl)cc1Cl` [Example I-181, 4-[6-Amino-5-(2,4-dichloro-benzyloxy)-pyridin-3-yl]-N-(3-morpholin-4-yl-propyl)-benzamide] is 1.9-fold lower in IC50: 3.8 µM for the first, 2 µM for the second.
